Reference: PMC4914680 (Antimicrobial Agents and Chemotherapy, 2016)
Read-outs that look alike come from different tables or passages of the source.

How the values were obtained:
[1] = Serum binding assay (ultracentrifugation)
[2] = tested on: subtype C gag/pr recombinant viruses; test: Multiple-cycle Gag/Pr phenotyping assay; type: cell-based, HIV-1
[3] = tested on: viruses from subtypes A, C, D, F, and G; test: Drug susceptibility assay using clinical isolates in PBMCs; settings: Human immunodeficiency virus 1, PBMC, read-out: EC50s (range)
HIV-1 JRFL = test: Multiple-cycle assay, laboratory strains; type: cell-based; settings: Human immunodeficiency virus 1, CCR5, PM1
HIV-1 Gag (WT LAI VLPs) = HIV-1 Gag (WT LAI VLPs) (Human immunodeficiency virus type 1 group M subtype B, UniProt P03348); test: [3H]BMS-955176-Gag binding (SPA)
[4] = tested on: HIV-1 NL4-3 ΔV370 variant (NLRepRlucP373S/Δ370); type: cell-based
[5] = tested on: HIV-1 subtype B clinical isolates; test: Drug susceptibility assay using clinical isolates in PBMCs
[6] = target: WT HIV-1 VLPs, p25 to p24 (CA/SP1) cleavage (Human immunodeficiency virus type 1 group M subtype B, UniProt P03348); test: HIV-1 VLP protease cleavage assay; type: biochemical; settings: Western blot
[7] = tested on: HIV-1 subtype D clinical isolates; test: Drug susceptibility assay using clinical isolates in PBMCs; settings: Human immunodeficiency virus 1, PBMC
[8] = tested on: HIV-1 subtype CRF01_AE clinical isolates; test: as above; settings: Human immunodeficiency virus 1, PBMC
HIV-1 NL4-3 = test: Time-of-addition study, NL4-3-infected B6 cells; type: cell-based; settings: single cycle, 24 h postinfection
HIV-2 CBL-23 = test: Multiple-cycle assay, laboratory strains; type: cell-based; settings: HIV-2 CBL-23, MT-2
HIV-1 protease = HIV-1 protease (Human immunodeficiency virus type 1 group M subtype B, UniProt P03366); test: HIV-1 protease assay; type: biochemical
[9] = tested on: HIV-LAI envelope-pseudotyped RepRlucP373SΔenv virus; test: Two-stage single-cycle pseudotype assay (HIV-1 entry assay); type: cell-based
HIV-1 LAI = test: Multiple-cycle assay, laboratory strains; type: cell-based; settings: Human immunodeficiency virus 1
[10] = tested on: V370M virus (recombinant virus with gag/pr genes from a clinical isolate); test: microbe, parasite or virus in culture; type: cell-based, HIV-1; settings: Human immunodeficiency virus 1, MT2, read-out: EC50 (SD)
[11] = tested on: HIV-1 subtype A clinical isolates; test: Drug susceptibility assay using clinical isolates in PBMCs; settings: Human immunodeficiency virus 1, PBMC
HIV-1 Bal = test: Multiple-cycle assay, laboratory strains; type: cell-based; settings: Human immunodeficiency virus 1, CCR5, PM1
[12] = tested on: HIV-1 subtype C clinical isolates; test: Drug susceptibility assay using clinical isolates in PBMCs
[13] = tested on: HIV-1 group O clinical isolates; test: as above; settings: Human immunodeficiency virus 1, PBMC
HIV-1 gp160 = target: T1, HIV-1 gp160 (Human immunodeficiency virus type 1 group M subtype B, UniProt P04578); test: HIV-1 cell fusion assay; type: cell-based
T1 construct: expressed in transfected cells; host or cells: NL-TOE donor cells (target cells: HeLa C14)

[14] = tested on: HIV-1 subtype F clinical isolate; test: Drug susceptibility assay using clinical isolates in PBMCs; settings: Human immunodeficiency virus 1, PBMC
HIV-2 CBL-20 = test: Multiple-cycle assay, laboratory strains; type: cell-based; settings: HIV-2 CBL-20, MT-2
in vitro = settings: dog
HIV-1 MN = test: Multiple-cycle assay, laboratory strains; type: cell-based; settings: Human immunodeficiency virus 1, CXCR4, MT-2
HIV-1 RF = test: Multiple-cycle assay, laboratory strains; type: cell-based; settings: Human immunodeficiency virus 1
HIV-1 integrase = HIV-1 integrase (Human immunodeficiency virus type 1 group M subtype B, UniProt P03366); test: HIV-1 integrase inhibitor binding assay
[15] = Human immunodeficiency virus 2, read-out: EC50

C=C(C)[C@@H]1CC[C@]2(NCCN3CCS(=O)(=O)CC3)CC[C@]3(C)[C@H](CC[C@@H]4[C@@]5(C)CC=C(c6ccc(C(=O)O)cc6)C(C)(C)[C@@H]5CC[C@]43C)[C@@H]12 [BMS-955176]
human serum binding ([1]; 100% human serum, ultracentrifugation method): 86%
fraction unbound at 1 h, 0.052 µM ([1]; human, serum): 0.14
EC50 ([2]; Human immunodeficiency virus 1, read-out: EC50 range): 2.1 to 45 nM
EC50 ([2]; Human immunodeficiency virus 1, read-out: mean EC50): 10.9 ± 9.1 nM
EC50 ([2]; Human immunodeficiency virus 1, read-out: median EC50): 8.8 nM
EC50 [3]: 5.9 to 87 nM
EC50 (HIV-1 JRFL): 2.5 ± 0.8 nM
Ki (HIV-1 Gag (WT LAI VLPs)): 5.6 nM
Kd (HIV-1 Gag (WT LAI VLPs); Kd values, range of 5 experiments): 2.3 to 6 nM
Kd (HIV-1 Gag (WT LAI VLPs); Kd, saturation binding of [3H]BMS-955176 to LAI VLPs): 5.5 nM
EC50 ([4]; Human immunodeficiency virus 1, NL43, MT2): 13 nM
EC50 ([4]; Human immunodeficiency virus 1, NL43, MT2, read-out: EC50 (SD)): 13 nM
EC50 ([5]; Human immunodeficiency virus 1, PBMC, read-out: Mean EC50 ± SD, PBMCs, B (96% of Gag diversity), 22 isolates): 24 ± 24 nM
EC50 ([5]; Human immunodeficiency virus 1, PBMC, read-out: Mean EC50 ± SD, PBMCs, B (all), 26 isolates): 67 ± 172 nM
EC50 ([5]; Human immunodeficiency virus 1, PBMC, read-out: Median EC50, PBMCs, B (96% of Gag diversity), 22 isolates): 17 nM
EC50 ([5]; Human immunodeficiency virus 1, PBMC, read-out: Median EC50, PBMCs, B (all), 26 isolates): 21 nM
EC50 ([5]; Human immunodeficiency virus 1, PBMC, read-out: Range EC50, PBMCs, B (96% of Gag diversity), 22 isolates): 1 to 110 nM
EC50 ([5]; Human immunodeficiency virus 1, PBMC, read-out: Range EC50, PBMCs, B (all), 26 isolates): 1 to 858 nM
EC50 ([5]; Human immunodeficiency virus 1, PBMC, read-out: mean EC50, PBMCs, three less susceptible subtype B variants with Gag V370A/ΔT371): 123 ± 162 nM
EC50 ([5]; PBMC): 860 nM
inhibition of conversion of VLP p25 to p24 [6]: inhibited the conversion of HIV-1 WT VLP p25 to p24 in a dose-dependent manner
EC50 ([7]; read-out: Median EC50): 6 nM
EC50 ([7]; read-out: Range EC50): 1 to 21 nM
EC50 ([8]; read-out: Mean EC50 ± SD, PBMCs, AE, 7 isolates): 77 ± 46 nM
EC50 ([8]; read-out: Range EC50, PBMCs, AE, 7 isolates): 10 to 139 nM
effect on luciferase signal by time of addition (HIV-1 NL4-3): did not inhibit luciferase expression when added any time during infection
EC50 (HIV-2 CBL-23): completely resistant
EC50 (HIV-2 CBL-23; [15]): > 1200 nM
IC50 (HIV-1 protease): > 10000 nM
inhibition of luciferase, compound added at stage 1 (virus production) [9]: inhibiting luciferase production only when added in the first stage
inhibition of luciferase, compound added at stage 2 (infection) [9]: inhibiting luciferase production only when added in the first stage
EC50 (HIV-1 LAI): 2.6 ± 0.3 nM
EC50 [10]: 10 nM
EC50 ([11]; PBMCs, one less sensitive subtype A isolate): 280 nM
EC50 ([11]; read-out: Mean EC50 ± SD, PBMCs, A, 13 of 14 isolates): 26 ± 25 nM
EC50 ([11]; read-out: Mean EC50 ± SD, PBMCs, A, 14 isolates): 44 ± 72 nM
EC50 ([11]; read-out: Median EC50, PBMCs, A, 13 of 14 isolates): 20 nM
EC50 ([11]; read-out: Median EC50, PBMCs, A, 14 isolates): 21 nM
EC50 ([11]; read-out: Range EC50, PBMCs, A, 13 of 14 isolates): 5 to 87 nM
EC50 ([11]; read-out: Range EC50, PBMCs, A, 14 isolates): 5 to 280 nM
EC50 ([11]; read-out: median EC50 values, Fig 7, PBMCs, A (Group M)): 20000 nM
EC50 (HIV-1 Bal): 0.7 ± 0.2 nM
EC50 ([12]; Human immunodeficiency virus 1, PBMC, PBMCs, one insensitive subtype C isolate): 1400 nM
EC50 ([12]; Human immunodeficiency virus 1, PBMC, read-out: Mean EC50 ± SD, PBMCs, C, 13 of 14 isolates): 17 ± 11 nM
EC50 ([12]; Human immunodeficiency virus 1, PBMC, read-out: Mean EC50 ± SD, PBMCs, C, 14 isolates): 116 nM
EC50 ([12]; Human immunodeficiency virus 1, PBMC, read-out: Median EC50, PBMCs, C, 13 of 14 isolates): 14 nM
EC50 ([12]; Human immunodeficiency virus 1, PBMC, read-out: Median EC50, PBMCs, C, 14 isolates): 14 nM
EC50 ([12]; Human immunodeficiency virus 1, PBMC, read-out: Range EC50, PBMCs, C, 13 of 14 isolates): 1 to 45 nM
EC50 ([12]; Human immunodeficiency virus 1, PBMC, read-out: median EC50 values, Fig 7, PBMCs, C (Group M)): 15000 nM
EC50 ([12]; read-out: Range EC50, PBMCs, C, 14 isolates): 1 to 1400 nM
EC50 ([13]; read-out: Mean EC50 ± SD, PBMCs, group O, 5 isolates): 170 ± 240 nM
EC50 ([13]; read-out: Median EC50, PBMCs, group O, 5 isolates): 30 nM
EC50 ([13]; read-out: Range EC50, PBMCs, group O, 5 isolates): 1 to 552 nM
EC50 (HIV-1 gp160): > 2000 nM
EC50 ([14]; read-out: Mean EC50): 5.9 nM
EC50 ([14]; read-out: Median EC50): 6 nM
EC50 ([14]; read-out: Range EC50): 6 nM
EC50 (HIV-2 CBL-20): completely resistant
EC50 (HIV-2 CBL-20; [15]): > 1200 nM
CC50 (in vitro): 3900 nM
EC50 (HIV-1 MN): 0.9 ± 0.6 nM
EC50 (HIV-1 RF): 7.7 ± 1.4 nM
IC50 (HIV-1 integrase): > 15000 nM
